{
  "source": "patent US20240245711A1",
  "about": "“A 19-NOR C3,3-DISUBSTITUTED C21-N-PYRAZOLYL STEROID FOR THE TREATMENT OF MAJOR DEPRESSIVE DISORDER” (Sage Therapeutics, Inc., priority 2021, published 2024)",
  "test_system": "adult subjects with Major Depressive Disorder",
  "experiment": "Phase 3 open-label 1-year study: HAM-D total score, response and remission",
  "assay_type": "in vivo, human",
  "description": "Secondary Objective: To assess the need for re-treatment with Compound (1) following initial treatment in adults with MDD currently experiencing an MDE over a 1-year period, and to assess the response of initial treatment and re-treatment(s) with Compound (1) following an initial 2-week treatment period in adults with MDD currently experiencing an MDE over a 1-year period.\nSecondary Endpoints: The need for re-treatment with Compound (1) as assessed by: time to first re-treatment (Kaplan-Meier curves), number of subjects achieving the requirements for re-treatment, number of re-treatment cycles for each subject, the response of initial treatment and/or re-treatment as assessed by: change from baseline in the 17-item Hamilton Rating Scale for Depression (HAM-D) total score at the end of each 14-day treatment (initial and/or re-treatment) period, HAM-D response at the end of each 14-day treatment (initial and/or re-treatment) period, defined as a ≥50% reduction in HAM-D score from baseline, HAM-D remission at the end of each 14-day treatment (initial and/or re-treatment) period, defined as HAM-D total score≤7, Clinical Global Impression-Improvement (CGI-I) response, defined as “much improved” or “very much improved”, at the end of each 14-day treatment (initial and/or re-treatment) period, change from baseline in Clinical Global Impression-Severity (CGI-S) score at the end of each 14-day treatment (initial and/or re-treatment) period.\nStudy Population: Subjects were 18-75 years old, diagnosed with major depressive disorder (MDD) with a MADRS total score of ≥28 and a HAM-D total score of ≥20 at Screening and Day 1 (prior to dosing).\nTreatment Groups: The 30 mg and 50 mg dose groups were separated by time of enrollment. The study is comprised of two cohorts: one with Compound (1) 30 mg as a starting dose (30 mg Cohort: n=725), an initial cohort with Compound (1) 50 mg as a starting dose (50 mg Cohort: n=199). A patient receiving Compound (1) 30 mg could be dose reduced to 20 mg and patients receiving Compound (1) 50 mg could be dose reduced to 40 mg (based on tolerability). In all cohorts, Compound (1) is self-administered by patients as an oral therapy once nightly with food for 14 days.\nEligible subjects were given Compound (1)—to be taken at home in the evening with meal.\nThe cohorts pertaining to the different doses that the subjects received were defined as following: • 50 mg cohort: This cohort includes subjects who have initiated treatment with 50 mg and received re-treatment with 50 mg only. • 30 mg cohort: This cohort includes subjects who have initiated treatment with 30 mg regardless of the dose they have received in re-treatments. • Low dose cohort: This cohort includes subjects who have initiated treatment with 30 mg and received re-treatment with 30 mg only. • Dose switch cohort: This cohort includes subjects who have received initial treatment with 30 mg and at least one subsequent re-treatment with 50 mg. • Study Period X: starts on the date of the first dose of Compound (1) in cycle X and goes up to one day prior to the first dose of the next cycle. In some embodiments, X is any number from 1 to 5. • Treatment Period X: starts on the date of the first dose of Compound (1) in cycle X and goes up to one day after the last dose in cycle X. In some embodiments, X is any number from 1 to 5. • Treatment Cycle X: starts on the date of the first dose of Compound (1) in cycle X and goes up to 14 days after the last dose in cycle X. The treatment cycles may be denoted as C1-C5. • Observation period X: starts the day after Treatment Cycle X ends and goes up to one day prior to the start of next treatment cycle. In some embodiments, X is any number from 1 to 5.\nAnalysis Sets: The safety set was defined as all subjects who were administered study drug. The period-specific safety set includes subjects in the safety set who were administered study drug in the corresponding treatment cycle. […]",
  "key": {"[1]": {"details": "Study Period 1, safety set, 30 mg Cohort (N = 725), Day 126"}, "[2]": {"details": "Study Period 1, safety set, 50 mg Cohort (N = 199), Day 8"}, "[3]": {"details": "Study Period 1, safety set, 50 mg Cohort (N = 199), Day 15"}, "[4]": {"details": "Study Period 1, safety set, 50 mg Cohort (N = 199), Day 28"}, "[5]": {"details": "Study Period 1, safety set, 50 mg Cohort (N = 199), Day 70"}, "[6]": {"details": "Study Period 1, safety set, 50 mg Cohort (N = 199), Day 126"}, "[7]": {"details": "baseline HAM-D score ≥24, Study Period 1, 30 mg Cohort (N = 458), Day 8"}, "[8]": {"details": "baseline HAM-D score ≥24, Study Period 1, 30 mg Cohort (N = 458), Day 15"}, "[9]": {"details": "baseline HAM-D score ≥24, Study Period 1, 30 mg Cohort (N = 458), Day 28"}, "[10]": {"details": "baseline HAM-D score ≥24, Study Period 1, 30 mg Cohort (N = 458), Day 70"}, "[11]": {"details": "baseline HAM-D score ≥24, Study Period 1, 30 mg Cohort (N = 458), Day 126"}, "[12]": {"details": "baseline HAM-D score ≥24, Study Period 1, 50 mg Cohort (N = 127), Day 8"}, "[13]": {"details": "baseline HAM-D score ≥24, Study Period 1, 50 mg Cohort (N = 127), Day 15"}},
  "note": "“And” between values parts separate entries of the source, which are not always exact repeats. Equal values may be shown once.",
  "data": [
    {"smiles": "C[C@@]1(O)CC[C@H]2[C@H](CC[C@@H]3[C@@H]2CC[C@]2(C)[C@@H](C(=O)Cn4cc(C#N)cn4)CC[C@@H]32)C1", "note": "[Compound (1), 1-(2-((3R,5R,8R,9R,10S,13S,14S,17S)-3-hydroxy-3,13-dimethylhexadecahydro-1H-cyclopenta[a]phenanthren-17-yl)-2-oxoethyl)-1H-pyrazole-4-carbonitrile]", "values": [
      {"measurement": "HAM-D Response", "setting": "[1]", "result": "144/203 (70.9%)"},
      {"measurement": "HAM-D total score, Mean % CFB ± SD", "setting": "[1]", "result": "−62.3 ± 30.36", "unit": "%"},
      {"measurement": "HAM-D total score, Mean CFB ± SD", "setting": "[1]", "result": "−15.7 ± 8.07"},
      {"measurement": "HAM-D Remission", "setting": "[2]", "result": "37/193 (19.2%)"},
      {"measurement": "HAM-D Response", "setting": "[2]", "result": "97/193 (50.3%)"},
      {"measurement": "HAM-D total score, Mean % CFB ± SD", "setting": "[2]", "result": "−49.2 ± 22.41", "unit": "%"},
      {"measurement": "HAM-D total score, Mean CFB ± SD", "setting": "[2]", "result": "−12.3 ± 5.79"},
      {"measurement": "HAM-D total score, Mean % CFB ± SD", "setting": "[3]", "result": "−63.6 ± 22.70", "unit": "%"},
      {"measurement": "HAM-D total score, Mean CFB ± SD", "setting": "[3]", "result": "−16±6.0 and −16.0±6.04"},
      {"measurement": "HAM-D Remission", "setting": "[4]", "result": "72/191 (37.7%)"},
      {"measurement": "HAM-D Response", "setting": "[4]", "result": "120/191 (62.8%)"},
      {"measurement": "HAM-D total score, Mean % CFB ± SD", "setting": "[4]", "result": "−58.3 ± 26.05", "unit": "%"},
      {"measurement": "HAM-D total score, Mean CFB ± SD", "setting": "[4]", "result": "−14.6 ± 6.75"},
      {"measurement": "HAM-D Remission", "setting": "[5]", "result": "41/118 (34.7%)"},
      {"measurement": "HAM-D Response", "setting": "[5]", "result": "69/118 (58.5%)"},
      {"measurement": "HAM-D total score, Mean % CFB ± SD", "setting": "[5]", "result": "−53.7 ± 28.40", "unit": "%"},
      {"measurement": "HAM-D total score, Mean CFB ± SD", "setting": "[5]", "result": "−13.6 ± 7.45"},
      {"measurement": "HAM-D Remission", "setting": "[6]", "result": "19/30 (63.3%)"},
      {"measurement": "HAM-D Response", "setting": "[6]", "result": "22/30 (73.3%)"},
      {"measurement": "HAM-D total score, Mean % CFB ± SD", "setting": "[6]", "result": "−65.2 ± 33.96", "unit": "%"},
      {"measurement": "HAM-D total score, Mean CFB ± SD", "setting": "[6]", "result": "−16.3 ± 9.06"},
      {"measurement": "HAM-D Remission", "setting": "[7]", "result": "70/446 (15.7%)"},
      {"measurement": "HAM-D Response", "setting": "[7]", "result": "192/446 (43.0%)"},
      {"measurement": "HAM-D total score, Mean % CFB ± SD", "setting": "[7]", "result": "−43.3 ± 25.63", "unit": "%"},
      {"measurement": "HAM-D total score, Mean CFB ± SD", "setting": "[7]", "result": "−12.0 ± 7.17"},
      {"measurement": "HAM-D Remission", "setting": "[8]", "result": "164 (37.9%) and 164/433 (37.9%)"},
      {"measurement": "HAM-D Response", "setting": "[8]", "result": "319 (73.7%) and 319/433 (73.7%)"},
      {"measurement": "HAM-D total score, Mean % CFB ± SD", "setting": "[8]", "result": "−60.9 ± 25.50", "unit": "%"},
      {"measurement": "HAM-D total score, Mean CFB ± SD", "setting": "[8]", "result": "−16.9 ± 7.34"},
      {"measurement": "HAM-D Remission", "setting": "[9]", "result": "132/431 (30.6%)"},
      {"measurement": "HAM-D Response", "setting": "[9]", "result": "250/431 (58.0%)"},
      {"measurement": "HAM-D total score, Mean % CFB ± SD", "setting": "[9]", "result": "−53.9 ± 28.59", "unit": "%"},
      {"measurement": "HAM-D total score, Mean CFB ± SD", "setting": "[9]", "result": "−15.0 ± 8.27"},
      {"measurement": "HAM-D Remission", "setting": "[10]", "result": "70/247 (28.3%)"},
      {"measurement": "HAM-D Response", "setting": "[10]", "result": "125/247 (50.6%)"},
      {"measurement": "HAM-D total score, Mean % CFB ± SD", "setting": "[10]", "result": "−49.2 ± 32.86", "unit": "%"},
      {"measurement": "HAM-D total score, Mean CFB ± SD", "setting": "[10]", "result": "−13.8 ± 9.39"},
      {"measurement": "HAM-D Remission", "setting": "[11]", "result": "58/120 (48.3%)"},
      {"measurement": "HAM-D Response", "setting": "[11]", "result": "90/120 (75.0%)"},
      {"measurement": "HAM-D total score, Mean % CFB ± SD", "setting": "[11]", "result": "−66.0 ± 28.29", "unit": "%"},
      {"measurement": "HAM-D total score, Mean CFB ± SD", "setting": "[11]", "result": "−18.2 ± 7.88"},
      {"measurement": "HAM-D Remission", "setting": "[12]", "result": "18/122 (14.8%)"},
      {"measurement": "HAM-D Response", "setting": "[12]", "result": "61/122 (50.0%)"},
      {"measurement": "HAM-D total score, Mean % CFB ± SD", "setting": "[12]", "result": "−49.3 ± 21.32", "unit": "%"},
      {"measurement": "HAM-D total score, Mean CFB ± SD", "setting": "[12]", "result": "−13.3 ± 5.87"},
      {"measurement": "HAM-D Remission", "setting": "[13]", "result": "44 (37.3%) and 44/118 (37.3%)"},
      {"measurement": "HAM-D Response", "setting": "[13]", "result": "94 (79.7%) and 94/118 (79.7%)"},
      {"measurement": "HAM-D total score, Mean % CFB ± SD", "setting": "[13]", "result": "−64.1 ± 21.73", "unit": "%"},
      {"measurement": "HAM-D total score, Mean CFB ± SD", "setting": "[13]", "result": "−17.4 ± 6.05"},
      {"measurement": "HAM-D Remission", "setting": "baseline HAM-D score ≥24, Study Period 1, 50 mg Cohort (N = 127), Day 28", "result": "41/120 (34.2%)"}
    ]}
  ]
}
